Source: PMC7069944, “Amino acid levels determine metabolism and CYP450 function of hepatocytes and hepatoma cell lines” (Nature Communications, 2020)
“And” between values parts separate entries of the source, which are not always exact repeats. Identical values can stand only once.

Columns and labels:
[1] = tested on: HepG2; assay: Repeated-exposure DILI training compounds, resazurin conversion, HepG2
Procedure, shortened: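 Viability by resazurin conversion, correlated with Cmax, was assessed after drug exposure in 384-well cultures of differentiated PSCs and of HepG2 (40,000 cells/well). Dosing began 8 h post-attachment, with untreated wells as negative control.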

[2] = tested on: HLC; assay: Repeated-exposure DILI training compounds, resazurin conversion, HLC
Procedure, shortened: (§1)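 PSC-derived cells differentiated in 384-well format, plus HepG2 seeded at 40,000 cells/well, received drugs after 8 h of attachment; untreated wells served as negative controls. Viability was measured by resazurin conversion and related to therapeutic Cmax values.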

[3] = tested on: HC3X; assay: Repeated-exposure DILI training compounds, resazurin conversion, HC3X; conditions: for Resazurin conversion, repeated exposure (Supplementary Figure 7D): HC3X AAGLY D40
Procedure, shortened: as §1

[4] = tested on: HC6X; assay: Repeated-exposure DILI training compounds, resazurin conversion, HC6X
Procedure, shortened: as §1

## Cc1ccc(C(=O)c2cc(O)c(O)c([N+](=O)[O-])c2)cc1 [tolcapone]
[1]; HepG2 AAGLY D30, 10 uM
  Resazurin conversion, repeated exposure (Supplementary Figure 7D): 106.6 and 108.2 and 105.6 and 120.1 and 84.5 and 128.6
[1]; HepG2 AAGLY D30, 30 uM
  Resazurin conversion, repeated exposure (Supplementary Figure 7D): 144.6 and 128.4 and 104.2 and 136.2 and 93.4 and 133.6
[1]; HepG2 AAGLY D30, 50 uM
  Resazurin conversion, repeated exposure (Supplementary Figure 7D): 126.9 and 134.9 and 97.9 and 148.8 and 105 and 143.9
[1]; HepG2 AAGLY D30, 300 uM
  Resazurin conversion, repeated exposure (Supplementary Figure 7D): 44.5 and 61.6 and 62 and 66.8 and 60.8 and 73.6
[1]; HepG2 AAGLY D30, 500 uM
  Resazurin conversion, repeated exposure (Supplementary Figure 7D): 48.7 and 42.4 and 39.6 and 41.5 and 43.3 and 45.5
[1]; HepG2 AAGLY D30, 1000 uM
  Resazurin conversion, repeated exposure (Supplementary Figure 7D): 27.5 and 27.3 and 26.8 and 27.1 and 27.8
[1]; HepG2 AAGLY D30, 2000 uM
  Resazurin conversion, repeated exposure (Supplementary Figure 7D): 22.7 and 22.5 and 22.2 and 22.1 and 22.4
[1]; HepG2 AAGLY D30, 4000 uM
  Resazurin conversion, repeated exposure (Supplementary Figure 7D): 15.8 and 14.5 and 14.4 and 13.5 and 14.3
[1]; HepG2 CTL D7, 10 uM
  Resazurin conversion, repeated exposure (Supplementary Figure 7D): 87 and 84.9 and 85.9 and 110.7 and 87.4 and 87.2
[1]; HepG2 CTL D7, 30 uM
  Resazurin conversion, repeated exposure (Supplementary Figure 7D): 113.4 and 88.9 and 98.2 and 86.8 and 100.5 and 86.2
[1]; HepG2 CTL D7, 300 uM
  Resazurin conversion, repeated exposure (Supplementary Figure 7D): 8.3 and 8 and 7.5 and 8.8 and 8.1
[1]; HepG2 CTL D7, 500 uM
  Resazurin conversion, repeated exposure (Supplementary Figure 7D): 7.3 and 6.8 and 6.5 and 6.6 and 6.7
[1]; HepG2 CTL D7, 1000 uM
  Resazurin conversion, repeated exposure (Supplementary Figure 7D): 6.4 and 5.9 and 5.8 and 5.6
[1]; HepG2 CTL D7, 2000 uM
  Resazurin conversion, repeated exposure (Supplementary Figure 7D): 4.8 and 4.4 and 4
[1]; HepG2 CTL D7, 4000 uM
  Resazurin conversion, repeated exposure (Supplementary Figure 7D): 2.3 and 2.5 and 2.2 and 2.1 and 2 and 2.6
[2]; HLC AAGLY D40, 10 uM
  Resazurin conversion, repeated exposure (Supplementary Figure 7D): 89.6 and 98.4 and 93.9 and 112.4 and 126.3 and 99.4
[2]; HLC AAGLY D40, 100 uM
  Resazurin conversion, repeated exposure (Supplementary Figure 7D): 143.7 and 88 and 126.1 and 79.6 and 153.9 and 130.7
[2]; HLC AAGLY D40, 500 uM
  Resazurin conversion, repeated exposure (Supplementary Figure 7D): 86.2 and 108.3 and 80.7 and 126.4 and 91.4 and 111.1
[2]; HLC AAGLY D40, 1000 uM
  Resazurin conversion, repeated exposure (Supplementary Figure 7D): 80.1 and 96.8 and 72.2 and 70.6 and 94.2 and 112.4
[2]; HLC LDM D40, 10 uM
  Resazurin conversion, repeated exposure (Supplementary Figure 7D): 110.5 and 107.3 and 79 and 94.2 and 118.4 and 85.4
[2]; HLC LDM D40, 50 uM
  Resazurin conversion, repeated exposure (Supplementary Figure 7D): 117.3 and 84.9 and 88.5 and 107.2 and 94.9 and 106
[2]; HLC LDM D40, 100 uM
  Resazurin conversion, repeated exposure (Supplementary Figure 7D): 136.2 and 145.5 and 129 and 115.8 and 107.1 and 144.8
[2]; HLC LDM D40, 500 uM
  Resazurin conversion, repeated exposure (Supplementary Figure 7D): 60.4 and 57.9 and 62.5 and 68.7 and 54 and 73.8
[2]; HLC LDM D40, 4000 uM
  Resazurin conversion, repeated exposure (Supplementary Figure 7D): 25.6 and 16.8 and 16.1 and 16 and 13.5 and 19.7
[3]; 10 uM
  Resazurin conversion, repeated exposure (Supplementary Figure 7D): 139.4 and 142.8 and 150.5 and 156.1 and 95.1 and 108.2
[3]; 30 uM
  Resazurin conversion, repeated exposure (Supplementary Figure 7D): 50.8 and 58.9 and 61.5 and 64.6 and 88.9 and 76.4
[3]; 300 uM
  Resazurin conversion, repeated exposure (Supplementary Figure 7D): 8.4 and 7.7 and 8 and 9.1 and 9.2
[3]; 500 uM
  Resazurin conversion, repeated exposure (Supplementary Figure 7D): 11.6 and 15.4 and 8.7 and 13.6 and 11.8 and 12.2
[3]; 1000 uM
  Resazurin conversion, repeated exposure (Supplementary Figure 7D): 6.7 and 6.6 and 6.4 and 6.5 and 7.5 and 9.6
[3]; 2000 uM
  Resazurin conversion, repeated exposure (Supplementary Figure 7D): 4.2 and 4.1 and 4.6
[3]; 4000 uM
  Resazurin conversion, repeated exposure (Supplementary Figure 7D): 3.1 and 3.3 and 3 and 3.2 and 3.4
[3]; human
  IC50/Cmax: 0.83
[4]; HC6X AAGLY D40, 10 uM
  Resazurin conversion, repeated exposure (Supplementary Figure 7D): 103.7 and 134.6 and 82 and 87 and 83.1 and 109.6
[4]; HC6X AAGLY D40, 30 uM
  Resazurin conversion, repeated exposure (Supplementary Figure 7D): 98.2 and 113.2 and 82.9 and 88.4 and 81.1 and 97.8
[4]; HC6X AAGLY D40, 100 uM
  Resazurin conversion, repeated exposure (Supplementary Figure 7D): 47.9 and 57 and 49.7 and 51.8 and 54.9 and 72.8
[4]; HC6X AAGLY D40, 300 uM
  Resazurin conversion, repeated exposure (Supplementary Figure 7D): 39.5 and 40.5 and 38.8 and 59.9 and 40.3 and 47.8
[4]; HC6X AAGLY D40, 500 uM
  Resazurin conversion, repeated exposure (Supplementary Figure 7D): 34.3 and 39.2 and 30.7 and 33.5 and 40.3 and 34.2
[4]; HC6X AAGLY D40, 1000 uM
  Resazurin conversion, repeated exposure (Supplementary Figure 7D): 31.1 and 26.7 and 26.3 and 27.6 and 26.5
[4]; HC6X AAGLY D40, 2000 uM
  Resazurin conversion, repeated exposure (Supplementary Figure 7D): 22.1 and 28.3 and 22.3 and 22.5 and 23 and 22.4
[4]; HC6X AAGLY D40, 4000 uM
  Resazurin conversion, repeated exposure (Supplementary Figure 7D): 17.8 and 17.3 and 16.6 and 16.3 and 16.4 and 16.8
[4]; HC6X AAGLY D40 Remove dox, 30 uM
  Resazurin conversion, repeated exposure (Supplementary Figure 7D): 108.6 and 121.2 and 103 and 112.9 and 119.8 and 93.5
[4]; HC6X AAGLY D40 Remove dox, 50 uM
  Resazurin conversion, repeated exposure (Supplementary Figure 7D): 77 and 153.8 and 144.7 and 105.2 and 81.9 and 88.4
[4]; HC6X AAGLY D40 Remove dox, 1000 uM
  Resazurin conversion, repeated exposure (Supplementary Figure 7D): 78.8 and 118 and 78.9 and 118.9 and 81.8 and 105.5
